Measurements taken from patent US20210244791A1, “APPLICATION OF PEDF-DERIVED SHORT PEPTIDES IN TENDON HEALING” (BRIM Biotechnology, Inc., priority 2018, published 2021).

Key:
[1] = system: cultured tendon stem/progenitor cells (TSPC); conditions: peptide added in culture medium; previous study; cited from earlier work
tendon rupture = conditions: rat model; previous study; cited from earlier work
Primary rabbit TSPC = test: TSPC cell proliferation assay (fluorometric kit); assay type: cell-based; conditions: 10 μM peptide, low serum media, PDSP solvent (DMSO) set as 100%, mean±SE of three experiments
Method: Primary rabbit TSPC were cultured to near-confluence in a 75T cell culture flask and then verified by immunostaining of a TSPC marker, nucleostemin (>98%; green color). Nuclei were stained with Hoechst 33258 (blue color) and visualized by an epifluorescence microscopy. The nucleostemine-positive TSPC were treated with 10 μM 29-mer or its variants for 24 h. The numbers of TSPC after 24-h expansion were detected with a cell proliferation assay kit (BioVision; catalog number: K307). The TSPC treated with PDSP solvent was set as 100%. Results are expressed as mean±SE of three independent experiments.
(§1) Achilles tendons from New Zealand White rabbits (6-8 months old, 3.0-4.0 kg) were used in this study. Achilles tendons were washed two times with sterile phosphate-buffered saline (PBS) containing 50 μg/ml gentamicin. The tendon and tendon sheath were cut into small pieces (1-2 mm^3). Each 100 mg of fragment was then digested in a solution containing 3 mg/ml of type I collagenase and 4 mg/ml of dispase in 1 ml balance salt solution (BSS; Alcone) at 37° C. for 4 hours. The digested tissues were washed three times with PBS and collected by centrifugation (800 g for 10 min). The digested tissues were placed in tissue-culture plates (Falcon Labware; NJ, USA) and resuspended in high-glucose DMEM supplemented with 10% FBS and 50 μg/ml gentamycin, and maintained at 37° C. with 5% CO2. After 5 days, the medium was changed to remove the loosened tissue residues. Subsequently, tendon cells were incubated with 10% FBS medium for 2 days, and then cultured with a basal medium (2% FBS, 1% ITSE, 300 μg/ml L-glutamine, 1% antibiotic-antimicotic solutions) for further 10 days. Culture medium was changed every 3 days. For passage, tendon cells were harvested with 0.25% trypsin/EDTA, cell counting by haemocytometer, approximately 5×10^3 cells were seeded in each well of a 96-well cell culture plate or 2×10^5 cells were seeded in each well of a 6-well cell culture plate for 24 h. These expanded tendon cells were then treated with 10 μM 29-mer or its variants in fresh basal medium for further 24 h and subjected to cell proliferation assay and western blot analysis, respectively.
Cell Proliferation Assay Kit (Fluorometric) was purchased from BioVision (Catalog #: K307) and used to evaluate cell proliferation according to the manufacturer's recommendations. The fluorescence was read at 480 nm for excitation and 538 nm for emission on a SPECTRAmax GEMINI XS fluorescence microplate spectrophotometer (Molecular Devices, Sunnyvale, Calif., USA).
Rabbit TSPC isolation was described above. TSPC in low serum media were treated with 10 μM of one of the 29-mer variants for 24 h. Cell proliferation was examined by a cell proliferation kit based on a kit provided nuclear dye that specifically binds to nucleic acid in the cell and generates green fluorescence.

cyclin D1 = test: Western blot analysis of cyclin D1 expression in TSPC; assay type: cell-based, rabbit; conditions: TSPC treated 24 h; compared with solvent-treated cells; normalized to β-actin
Method: Primary rabbit TSPC were treated with 10NM 29-mer or its variants for 24 h. Representative blots (A) and densitometric analysis with the SD (B) from three independent experiments are shown. Cyclin D1 expression was normalized to ([…]. *P<0.01 vs. solvent-treated cells. ^#P<0.05 vs. 29-mer-treated cells.
as §1
Cell lysis, SDS-PAGE, and antibodies used for immunoblotting were performed as described (Ho et al., 15-deoxy-Delta(12,14)-prostaglandin J2 induces vascular endothelial cell apoptosis through the sequential activation of MAPKS and p53. J Biol. Chem., 2008; 283(44): 30273-30288). The band intensity in immunoblot was evaluated with a Model GS-700 imaging densitometer (Bio-Rad Laboratories, Hercules, Calif.) and analyzed using Labworks 4.0 software.
However, the 29-mer effect on cyclin D1 protein induction was almost abolished by alanine/glycine replacement at residue S93, A96, Q98, 1103, 1104 and R106, respectively (1.3±0.1, 1.5±0.3, 1.3±0.1, 0.9±0.1, 1.3±0.2, and 1.0±0.3). […] The data also imply that the PDSP at positions Ser93, Ala96, Gln98, Ile103, Ile104, and Arg106 are important for sustaining the PDSP effect on induction of TSPC proliferation.

injured Achilles tendon = test: Rat model of Achilles tendon injury, histology (H&E) and histopathological score; assay type: in vivo; conditions: 1 week postoperative; subcutaneous 150 μl alginate gel with 100 μM peptide
From the text: Representative micrographs of the histopathological analysis by H&E staining. H&E-stained sections in higher magnification show uninjured tendon tissue with a relative scarcity of cells among the collagen fibers.
(A) Representative H&E-stained longitudinal sections in higher magnification show the nuclei morphologies in uninjured tendon tissue and injured tendon treated with vehicle/alginate and 29-mer/alginate for 1 week. (B) Histopathological scores. Total scores were determining by fiber structure, fiber arrangement, rounding of the nuclei, resident cell density and inflammation (infiltration of inflammatory cells, neovascularization and fatty deposits). Data are reported as mean±SE. *P<0.0005 versus vehicle/alginate-treated tendon; ^#P<0.05 versus 29-mer/alginate-treated tendon.
To investigate the effects of the 29-mer peptide on tendon healing, a rat model of Achilles tendon injury was established as reported by Orhan et al. (The effect of extracorporeal shock waves on a rat model of injury to tendon Achilles. A histological and biomechanical study. J. Bone Joint Surg. Br. 2004;.86(4):.613-618). Adult 10-week-old male Sprague-Dawley rats (initial body weight=312±11 g) were anesthetized by an intraperitoneal injection of xylazine (10 mg/kg). Then, the left tendo Achilles injury was created by full-thickness insertion of an 18-G needle through tendo Achilles 1 cm proximal to the calcaneum attachment site. This created a horizontal wound that was flanked by intact tendon tissue to prevent the retraction of severed ends. The skin incision was closed after the wound was irrigated with sterile saline. Treatments were applied to area around the tendon lesion by subcutaneous injection with 150 μl of alginate gel mixed with 100 μM 29-mer or DMSO vehicle (six rats per experimental condition).
The tendon and surrounding soft tissue were dissected. Specimens were fixed in a 4% paraformaldehyde (PFA) solution and then were embedded in paraffin blocks. Sections (5 μm in thickness) were longitudinally cut and stained with hematoxylin and eosin (H&E) or used for immunohistochemical examination. 36 sections per tendon were carefully prepared so as to include the most severely degenerated area. Images were captured using a Nikon Eclipse 80i microscope (Nikon Corporation, Tokyo, Japan) equipped with a Leica DC 500 camera (Leica Microsystems, Wetzlar, Germany). Four sections of each sample containing injured tendon tissues were selected and evaluated by two blinded observers to assess the tendon morphology according to a modified semi-quantitative grading score from 0 to 3 proposed by Chen et al. (Tendon derived stem cells promote platelet-rich plasma healing in collagenase-induced rat Achilles tendinopathy. Cell Physiol. Biochem., 2014; 34(6): 2153-68). The scores analyzed the fiber structure (0-3), fiber arrangement (0-3), rounding of the nuclei (0-3), resident cell density (0-3), and inflammation (0-3; infiltration of inflammatory cells, neovascularization and fatty deposits). According to this grading system, a perfectly normal tendon obtained a score of 0, whereas a score of 15 was assigned to maximally abnormal tendons.
To investigate the therapeutic effect of the 29-mer peptide on injured tendon, a rat model of Achilles tendon injury was established by full-thickness insertion of an 18-G needle through the tendon Achilles. We delivered the 29-mer in a 150 μl alginate gel, which releases 90% loaded 29-mer in 5 days as described in a previous protocol (Ho et al., PEDF-derived peptide promotes skeletal muscle regeneration through its mitogenic effect on muscle progenitor cells. Am J Physiol. Cell Physiol. 2015 Aug. 1; 309(3): C159-68).

Row | Substance | induction of cultured TSPC proliferation [1] | healing of tendon rupture (tendon rupture) | TSPC proliferation (numbers of TSPC after 24-h expansion) (Primary rabbit TSPC) [%] | induction of the cyclin D1 protein (cyclin D1) [fold] | histological appearance of treated tendon (H&E staining) (injured Achilles tendon)
1 | 20-mer: PEDF-derived short peptide, Ser93-Leu112 (SLGAEQRTESIIHRALYYDL; UniProt P36955 93-112, looked up, fragment) | able to induce cultured tendon stem/progenitor cells (TSPC) proliferation | facilitated healing of tendon rupture | – | – | –
2 | 24-mer: PEDF-derived short peptide, Ser93-Pro (SLGAEQRTESIIHRALYYDLISSP; UniProt P36955 93-116, looked up, fragment) | able to induce cultured tendon stem/progenitor cells (TSPC) proliferation | facilitated healing of tendon rupture | – | – | –
3 | 1103A: 29-mer variant with single alanine replacement at isoleucine-103 (SLGAEQRTESAIHRALYYDLISSPDIHGT; UniProt P36955 93-121, looked up, variant I103A) | – | – | 106±5.3 | 0.9±0.1 | loss of fiber organization and accompanied a marked increase in inflammatory matrix, fatty deposits, and vascularity
4 | 1104A: 29-mer variant with single alanine replacement at isoleucine-104 (SLGAEQRTESIAHRALYYDLISSPDIHGT; UniProt P36955 93-121, looked up, variant I104A) | – | – | 112±1.7 | 1.3±0.2 | loss of fiber organization and accompanied a marked increase in inflammatory matrix, fatty deposits, and vascularity
5 | A96G: 29-mer variant with single glycine alteration at alanine-96 (SLGGEQRTESIIHRALYYDLISSPDIHGT; UniProt P36955 93-121, looked up, variant A96G) | – | – | 102±4.0 | 1.5±0.3 | loss of fiber organization and accompanied a marked increase in inflammatory matrix, fatty deposits, and vascularity
6 | A107G: 29-mer variant with single glycine alteration at residue 107 (SLGAEQRTESIIHRGLYYDLISSPDIHGT; UniProt P36955 93-121, looked up, variant A107G) | – | – | 117±3.8 | – | –
7 | P116A: 29-mer variant with single alanine alteration at residue 116 (SLGAEQRTESIIHRALYYDLISSADIHGT; UniProt P36955 93-121, looked up, variant P116A) | – | – | 115±3.7 | – | –
8 | Q98A: 29-mer variant with single alanine replacement at glutamine-98 (SLGAEARTESIIHRALYYDLISSPDIHGT; UniProt P36955 93-121, looked up, variant Q98A) | – | – | 106±5.4 | 1.3±0.1 | loss of fiber organization and accompanied a marked increase in inflammatory matrix, fatty deposits, and vascularity
9 | R99A: 29-mer variant with single alanine alteration at residue 99 (SLGAEQATESIIHRALYYDLISSPDIHGT; UniProt P36955 93-121, looked up, variant R99A) | – | – | 116±7.0 | – | –
10 | R106A: 29-mer variant with single alanine replacement at arginine-106 (SLGAEQRTESIIHAALYYDLISSPDIHGT; UniProt P36955 93-121, looked up, variant R106A) | – | – | 106±3.5 | 1.0±0.3 | loss of fiber organization and accompanied a marked increase in inflammatory matrix, fatty deposits, and vascularity
